Results as given in patent US6262054A (priority 1996, dated 2001).
“Also recorded” adds a separate entry of the source. Like-named read-outs stand apart in the source and are kept apart here.

Key:
in vivo = details: mouse, in vivo, ip
Excerpt: (§1) Combination treatment in mice. The P388 lymphoidal tumor was transplanted intraperitoneally (10^6 cells/mouse) into […] mice. The animals were randomized into control and treated groups after tumor implant. […] Therapy was repeated three times at four day intervals between each treatment.

P388 Murine Tumor = assay: in vivo; details: for Increased Life-Span / Long-term Survivors / Median Survival Time (± SEM): at maximum tolerated dose, q4d × 3 ip
Excerpt: as §1

dihydrofolate reductase = details: cited from earlier work
a number of tumors = details: preclinical tests; cited from earlier work
sensitive tumor cells = details: cited from earlier work
[1] = test system: non-small cell lung cancer; details: single agent; cited from earlier work
non-Hodgkin's lymphoma = details: single agent; cited from earlier work
head and neck carcinoma = details: single agent; cited from earlier work
breast cancer = details: cited from earlier work; for curative effect of the single agent: alone, metastatic breast cancer patients; for antitumor activity: single agent
smallcell lung cancer = details: single agent; cited from earlier work
[2] = test system: metastatic colorectal carcinoma; details: single agent; cited from earlier work
[3] = cited from earlier work
[4] = test system: refractory ovarian cancer; details: in vivo; cited from earlier work
microtubules = details: cited from earlier work

In the case of `CCC(Cc1cnc2nc(N)nc(N)c2n1)c1ccc(C(=O)N[C@@H](CCC(=O)O)C(=O)O)cc1` (some centres unmarked) [EDX, 10-ethyl-10-deaza-aminopterin], the MTD (in vivo) is reported as 100 mg/kg, the “Therapeutic activity (in words)” value (P388 Murine Tumor; P388 in mice, maximum tolerated dose) is reported as “more effective than MTX” and the “Increased Life-Span” value (P388 Murine Tumor) is reported as “+338%”. The “Long-term Survivors” value (P388 Murine Tumor) was 1/5, the “Median Survival Time (± SEM)” value (P388 Murine Tumor) was 35 ± 4 days and the “inhibition of dihydrofolate reductase” value (dihydrofolate reductase; listed as Edatrexate) was “inhibits dihydrofolate reductase”. For the same molecule, the “inhibition of dihydrofolate reductase” value (dihydrofolate reductase; listed as edatrexate) was “inhibitor of dihydrofolate reductase”, the “antitumor activity compared with methotrexate” value (a number of tumors) was “greater antitumor activity than methotrexate against a number of tumors” and the “accumulation / retention in tumor cells compared with methotrexate” value (sensitive tumor cells) was “accumulated in sensitive tumor cells to a greater extent than its predecessor methotrexate and was more selectively retained by the tumor cells”. For the same molecule, the response rates [1] was roughly 30%, the antitumor activity (non-Hodgkin's lymphoma) was “Antitumor activity of edatrexate has also been observed” and the antitumor activity (head and neck carcinoma) was “Antitumor activity of edatrexate has also been observed”. The “curative effect of the single agent” value (breast cancer) was “neither edatrexate nor paclitaxel alone is curative for most metastatic breast cancer patients”, the antitumor activity (breast cancer) was “Antitumor activity of edatrexate has also been observed” and the anti-tumor activity (smallcell lung cancer) was “No anti-tumor activity was observed”. For the same molecule, the anti-tumor activity [2] was “No anti-tumor activity was observed”, the “dosage limit due to side effects” value ([3]; given occasionally) was “up to 120 mg/m^2 /week” and the primary toxic effect ([3]; single agent) was “mucositis”. For the same molecule, the “dosage limit due to side effects” value ([3]; usual) was 80 mg/m^2 body surface area/week.

In the case of `CN(Cc1cnc2nc(N)nc(N)c2n1)c1ccc(C(=O)N[C@@H](CCC(=O)O)C(=O)O)cc1` [MTX, methotrexate], the MTD (in vivo) is reported as 55 mg/kg, the “Long-term Survivors” value (P388 Murine Tumor) is reported as 0/5 and the “Median Survival Time (± SEM)” value (P388 Murine Tumor) is reported as 27 ± 3 days. For the same molecule, the “inhibition of dihydrofolate reductase” value (dihydrofolate reductase) was “inhibitor of dihydrofolate reductase; also recorded: inhibits dihydrofolate reductase”.

With `CC(=O)O[C@H]1C(=O)[C@@]2(C)[C@H]([C@H](OC(=O)c3ccccc3)[C@]3(O)C[C@H](OC(=O)[C@H](O)[C@@H](NC(=O)c4ccccc4)c4ccccc4)C(C)=C1C3(C)C)[C@]1(OC(C)=O)CO[C@@H]1C[C@@H]2O` [TXL, paclitaxel] the MTD (in vivo) was 18 mg/kg, the “Increased Life-Span” value (P388 Murine Tumor) was “+100%” and the “Long-term Survivors” value (P388 Murine Tumor) was 0/5. The “Median Survival Time (± SEM)” value (P388 Murine Tumor) was 16 ± 2 days, the “curative effect of the single agent” value (breast cancer) was “neither edatrexate nor paclitaxel alone is curative for most metastatic breast cancer patients” and the antitumor activity (breast cancer) was “anti-tumor properties in some breast cancer patients”. For the same molecule, the activity [4] was “activity against refractory ovarian cancer”, the “effect on microtubule assembly and stability” value (microtubules) was “promotes the assembly of microtubules from tubulin dimers and stabilizes microtubules by preventing depolymerization” and the “primary dose limiting toxic effect” value ([3]; single agent) was “myelosuppression”.
